# Marks after values point to notes of the source that are not given here.
# How the values were obtained:
# Type in all cases: cell-based
# [1] = biological target: T1, OR1N2 (Homo sapiens, UniProt Q8NGR9, T287M/V230G/W23R); assay: CRE-luciferase assay, HEK293T cells expressing OR1N2 (wild-type / modified C-terminus)
# T1 construct: Improved functional expression of modified OR-genes containing the truncated, optimized C-terminus; expressed in transfected cells; host or cells: HEK293T stably expressing human RTP1S(V227I) and RTP2(L220R)
# T1 sequence (Q8NGR9 with tags, fused parts or gaps W23R/V230G/T287M): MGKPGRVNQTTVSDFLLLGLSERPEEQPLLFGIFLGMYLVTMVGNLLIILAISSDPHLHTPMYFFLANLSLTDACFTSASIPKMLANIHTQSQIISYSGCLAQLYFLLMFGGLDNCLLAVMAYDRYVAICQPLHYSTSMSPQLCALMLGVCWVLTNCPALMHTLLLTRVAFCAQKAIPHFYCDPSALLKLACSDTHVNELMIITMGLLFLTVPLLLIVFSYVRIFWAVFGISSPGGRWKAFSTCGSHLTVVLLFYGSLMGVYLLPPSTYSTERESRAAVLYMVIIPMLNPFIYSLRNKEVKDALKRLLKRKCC
# [2] = biological target: T2, OR5A1 (Homo sapiens, UniProt Q8NGJ0, I300V); assay: CRE-luciferase assay, HEK293T cells expressing OR5A1 (wild-type / modified C-terminus)
# T2 construct: Improved functional expression of modified OR-genes containing the truncated, optimized C-terminus; expressed in transfected cells; host or cells: HEK293T stably expressing human RTP1S(V227I) and RTP2(L220R)
# T2 sequence (Q8NGJ0 with tags, fused parts or gaps I300V): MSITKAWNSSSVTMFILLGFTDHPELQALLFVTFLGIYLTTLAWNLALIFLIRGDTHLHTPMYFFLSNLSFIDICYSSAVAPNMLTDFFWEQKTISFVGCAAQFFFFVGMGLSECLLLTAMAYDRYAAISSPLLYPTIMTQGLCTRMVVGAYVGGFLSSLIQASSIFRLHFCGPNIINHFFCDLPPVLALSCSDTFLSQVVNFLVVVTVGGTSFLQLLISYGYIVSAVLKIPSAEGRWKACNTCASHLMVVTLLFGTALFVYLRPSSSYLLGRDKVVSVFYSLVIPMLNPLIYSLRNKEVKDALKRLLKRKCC
# [3] = biological target: T3, OR10H5 (Homo sapiens, UniProt Q8NGA6); assay: CRE-luciferase assay, HEK293T cells expressing OR10H5 (wild-type / modified C-terminus)
# T3 construct: Improved functional expression of modified OR-genes containing the truncated, optimized C-terminus; expressed in transfected cells; host or cells: HEK293T stably expressing human RTP1S(V227I) and RTP2(L220R)
# T3 sequence (Q8NGA6 with tags, fused parts or gaps): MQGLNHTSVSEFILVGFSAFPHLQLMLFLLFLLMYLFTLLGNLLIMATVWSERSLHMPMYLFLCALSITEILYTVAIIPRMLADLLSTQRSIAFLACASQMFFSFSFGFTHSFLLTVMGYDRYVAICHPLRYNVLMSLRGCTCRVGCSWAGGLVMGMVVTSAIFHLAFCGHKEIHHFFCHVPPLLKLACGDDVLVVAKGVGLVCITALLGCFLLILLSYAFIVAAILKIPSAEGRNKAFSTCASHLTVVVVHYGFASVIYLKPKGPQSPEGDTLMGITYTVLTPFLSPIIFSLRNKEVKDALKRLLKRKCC
# Description: All tested receptors of Table 1 gave improved functional expression when the wild-type C-terminal domain was replaced with SEQ ID NO: 86. This functional expression was further improved when SEQ ID NO:86 was replaced with SEQ ID NO: 221 as shown for OR7C1 in Table 8 and for OR5B12 in Table 9. This additive improvement was further tested with OR10H5 (Table 18) and OR7A17 (Table 19). […] The full DNA sequences encoding the modified receptors are SEQ ID NO: 684 for OR10H5 and SEQ ID NO: 611 for OR7A17.
# [4] = biological target: T4, OR10J1(M51I, I92M) (Homo sapiens, UniProt P30954, I103M/M62I); assay: Dose-response test of single lactones on OR10J1(M51I, I92M)
# T4 construct: expressed in transfected cells; transient transfection of pcDNA3.1(+) OR plasmid
# T4 sequence (P30954 with tags, fused parts or gaps M62I/I103M): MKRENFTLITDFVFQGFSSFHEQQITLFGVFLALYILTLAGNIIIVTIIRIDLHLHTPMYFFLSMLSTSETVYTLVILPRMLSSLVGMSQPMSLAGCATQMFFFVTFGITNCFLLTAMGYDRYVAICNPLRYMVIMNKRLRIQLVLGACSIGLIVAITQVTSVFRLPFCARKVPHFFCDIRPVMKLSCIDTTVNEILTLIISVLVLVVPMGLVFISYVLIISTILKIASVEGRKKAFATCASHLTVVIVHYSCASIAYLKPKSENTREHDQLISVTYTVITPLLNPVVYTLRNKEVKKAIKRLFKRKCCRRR
# Description: (§1) In a subsequent de-convultion experiment, the single ingredients were tested in a dose-response test on all the identified OR. […] Thus, OR2AP1 and OR2J2 are particularly strongly activated by the long-chain dodecalactone gamma, while OR10A3 is very sensitive to several longer chain lactones. […] Among the five OR, OR10A3 is the most sensitive.
# [5] = biological target: T5, OR10A6(A117V, V140G, L287P) (Homo sapiens, UniProt Q8NH74, A117V/L287P/V140G); assay: Dose-response test of single lactones on OR10A6(A117V, V140G, L287P)
# T5 construct: expressed in transfected cells; transient transfection of pcDNA3.1(+) OR plasmid
# T5 sequence (Q8NH74 with tags, fused parts or gaps A117V/V140G/L287P limits assumed): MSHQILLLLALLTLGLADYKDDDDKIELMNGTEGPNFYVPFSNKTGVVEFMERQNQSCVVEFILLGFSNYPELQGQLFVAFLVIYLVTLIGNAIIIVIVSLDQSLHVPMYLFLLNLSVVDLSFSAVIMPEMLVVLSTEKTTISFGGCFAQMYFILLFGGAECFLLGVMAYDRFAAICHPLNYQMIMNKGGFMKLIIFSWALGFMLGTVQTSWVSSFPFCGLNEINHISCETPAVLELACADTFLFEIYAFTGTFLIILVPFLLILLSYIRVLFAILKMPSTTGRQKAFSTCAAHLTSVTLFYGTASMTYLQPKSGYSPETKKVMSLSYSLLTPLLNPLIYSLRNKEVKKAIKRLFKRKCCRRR
# Description: as §1
# [6] = biological target: T6, OR2J2 (Homo sapiens, UniProt O76002, A146V/A218T/A302I/G300K/H297E/H74Y); assay: Dose-response test of single lactones on OR2J2
# T6 construct: expressed in transfected cells; transient transfection of pcDNA3.1(+) OR plasmid
# T6 sequence (O76002 with tags, fused parts or gaps H74Y/A146V/A218T/H297E/G300K/A302I limits assumed): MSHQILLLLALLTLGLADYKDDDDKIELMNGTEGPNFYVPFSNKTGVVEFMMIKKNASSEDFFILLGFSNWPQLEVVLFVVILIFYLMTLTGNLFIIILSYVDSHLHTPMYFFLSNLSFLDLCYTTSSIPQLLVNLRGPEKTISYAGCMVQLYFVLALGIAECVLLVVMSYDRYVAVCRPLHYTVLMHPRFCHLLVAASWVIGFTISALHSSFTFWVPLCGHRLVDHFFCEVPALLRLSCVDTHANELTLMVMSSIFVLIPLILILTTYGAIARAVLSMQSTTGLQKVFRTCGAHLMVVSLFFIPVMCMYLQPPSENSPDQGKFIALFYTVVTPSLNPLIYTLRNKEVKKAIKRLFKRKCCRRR
# Description: as §1
# [7] = biological target: T7, OR10A3 (Homo sapiens, UniProt P58181); assay: Dose-response test of single lactones on OR10A3 (luciferase)
# T7 construct: Class II OR library members with modified C-terminal domains; expressed in transfected cells
# T7 sequence (P58181 with tags, fused parts or gaps): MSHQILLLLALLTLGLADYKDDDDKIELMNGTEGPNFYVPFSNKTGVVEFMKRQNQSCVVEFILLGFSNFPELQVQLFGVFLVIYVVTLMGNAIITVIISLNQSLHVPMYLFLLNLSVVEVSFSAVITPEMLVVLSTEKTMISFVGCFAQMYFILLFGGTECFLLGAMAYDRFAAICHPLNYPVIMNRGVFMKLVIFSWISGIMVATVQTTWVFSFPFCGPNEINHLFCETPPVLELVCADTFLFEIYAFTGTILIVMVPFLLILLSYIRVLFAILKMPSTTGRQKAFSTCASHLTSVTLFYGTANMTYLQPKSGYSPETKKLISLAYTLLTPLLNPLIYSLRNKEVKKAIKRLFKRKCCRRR
# Description: as §1
# [8] = biological target: T8, OR2AP1 (Homo sapiens, UniProt Q8NGE2); assay: Dose-response test of single lactones on OR2AP1
# T8 construct: expressed in transfected cells; transient transfection of pcDNA3.1(+) OR plasmid
# T8 sequence (Q8NGE2 with tags, fused parts or gaps limits assumed): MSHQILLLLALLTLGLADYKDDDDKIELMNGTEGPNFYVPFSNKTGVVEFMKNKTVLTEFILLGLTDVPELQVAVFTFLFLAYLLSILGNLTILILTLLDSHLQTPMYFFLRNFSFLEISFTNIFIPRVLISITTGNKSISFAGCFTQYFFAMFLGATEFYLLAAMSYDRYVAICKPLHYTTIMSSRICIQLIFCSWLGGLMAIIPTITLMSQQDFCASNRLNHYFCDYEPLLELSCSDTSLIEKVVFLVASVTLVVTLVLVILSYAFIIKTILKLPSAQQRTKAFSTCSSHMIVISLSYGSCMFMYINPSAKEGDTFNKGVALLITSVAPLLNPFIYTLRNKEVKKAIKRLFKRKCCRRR
# Description: as §1
smiles,measurement,setting,value
O=C1CCCCCCCC=CCCCCCCO1 [Ambrettolide],Comments on efficacy,[1],1.5
same,Detection threshold; concentration for 2-fold induction,[1]; changed C-term. SEQ ID NO: 86,0.26 µM
same,Fold-improvement potency,[1]; changed C-term. vs wild-type,1.5
same,Fold-improvement threshold,[1]; changed C-term. vs wild-type,5.2
same,Detection threshold; concentration for 2-fold induction,[1]; wild-type,1.33 µM
CC(=O)/C=C/C1=C(C)CCCC1(C)C [Beta-ionone],Comments on efficacy,[2],4-fold lower
same,Detection threshold; concentration for 2-fold induction,[2]; changed C-term. SEQ ID NO: 86,3.2 µM
same,Fold-improvement potency,[2]; changed C-term. vs wild-type,1.8
same,Fold-improvement threshold,[2]; changed C-term. vs wild-type,5.9
same,Detection threshold; concentration for 2-fold induction,[2]; wild-type,19.1 µM
same,EC50,[2]; wild-type,5.5 µM
Cc1ccc2c(c1)OCC(=O)CO2 [Calone],Comments on efficacy,[3],3-fold lower
same,Detection threshold; concentration for 2-fold induction,[3]; changed C-term. SEQ ID NO: 86,24.3 µM
same,Fold-improvement threshold,[3]; changed C-term. vs wild-type,2.5
same,Fold-improvement potency,"[3]; changed C-term. vs wild-type, higher EC50 due to much higher efficacy of optimized C-terminus",0.7 *
same,Detection threshold; concentration for 2-fold induction,[3]; wild-type,60.1 µM
CCCCCC1CCCC(=O)O1 (stereo not shown) [Decalactone delta],EC2 (concentration for 2-fold luciferase induction),[4],31.73 µM
same,EC2 (concentration for 2-fold luciferase induction),[5],5.31 µM
same,EC2 (concentration for 2-fold luciferase induction),[6],98.89 µM
same,"EC10, concentration for 10-fold OR activation",[7],2.10 μM
CCCCCCC1CCC(=O)O1 (stereo not shown) [Decalactone gamma],EC2 (concentration for 2-fold luciferase induction),[4],3.63 µM
same,EC2 (concentration for 2-fold luciferase induction),[5],1.62 µM
same,EC2 (concentration for 2-fold luciferase induction),[8],33.66 µM
same,EC2 (concentration for 2-fold luciferase induction),[6],3.27 µM
same,"EC10, concentration for 10-fold OR activation",[7],0.84 μM

# Reference: patent publication US20260210939A1, “MODIFIED OLFACTORY RECEPTORS” (GIVAUDAN SA, priority 2022, published 2026)
